The values that follow come from patent US20250144094A1 (Erasca, Inc., priority 2021, published 2025).

The target of this experiment is Recombinant human ULK1 (1-649) (Homo sapiens (Human), UniProt O75385). Put plainly: ULK1 ADP Glo kinase activity assay (MBP substrate). The following applies: 25° C., 40 minutes, read-out: ULK1 biochemical IC50. An outline of the steps: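 GST-tagged ULK1 (1-649) from Sf9 cells phosphorylated MBP, with ATP, for 40 min at 25 °C across a 12-point series from 10 uM. ADP formed was quantified by ADP-Glo luminescence against DMSO controls. IC50 came from a four-parameter variable-slope fit of log concentration.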
Recombinant human ULK1 (1-649), sequence (O75385 1-649): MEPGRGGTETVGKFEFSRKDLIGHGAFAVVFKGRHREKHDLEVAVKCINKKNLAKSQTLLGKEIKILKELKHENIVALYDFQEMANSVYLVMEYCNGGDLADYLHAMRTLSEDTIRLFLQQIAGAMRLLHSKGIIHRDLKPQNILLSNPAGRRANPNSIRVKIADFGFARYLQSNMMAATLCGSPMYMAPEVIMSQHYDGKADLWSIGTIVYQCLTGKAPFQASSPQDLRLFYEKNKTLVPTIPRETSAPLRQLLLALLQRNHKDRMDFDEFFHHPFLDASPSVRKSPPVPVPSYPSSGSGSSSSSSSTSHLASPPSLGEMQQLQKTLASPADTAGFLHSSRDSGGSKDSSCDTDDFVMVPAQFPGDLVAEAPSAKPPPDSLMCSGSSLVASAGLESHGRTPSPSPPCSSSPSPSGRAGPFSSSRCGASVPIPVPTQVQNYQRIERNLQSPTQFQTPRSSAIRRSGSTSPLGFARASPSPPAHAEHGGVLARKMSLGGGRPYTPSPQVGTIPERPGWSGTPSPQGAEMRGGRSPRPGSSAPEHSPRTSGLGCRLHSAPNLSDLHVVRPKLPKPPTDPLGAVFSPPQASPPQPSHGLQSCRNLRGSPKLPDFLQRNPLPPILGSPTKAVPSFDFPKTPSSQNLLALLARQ
(In general: ADP-Glo turns the ADP formed in a reaction into a luminescent signal.)

The term IC50 denotes the concentration that gives 50% inhibition. For `CS(=O)(=O)c1cc(-c2nc(Nc3cc4c(cc3Cl)CNCC4)ncc2C(F)(F)F)sc1CN1CCOCC1` [Example 62, 7-chloro-N-(4-(4-(methylsulfonyl)-5-(morpholinomethyl)thiophen-2-yl)-5-(trifluoromethyl)pyrimidin-2-yl)-1,2,3,4-tetrahydroisoquinolin-6-amine], the IC50 was in the range of 10 to 50 nM.

For the compound `CN1CCc2cc(Nc3ncc(C(F)(F)F)c(-c4cc(S(C)(=O)=O)c(CN5CCOCC5)s4)n3)c(Cl)cc2C1` [Example 67, 7-chloro-2-methyl-N-(4-(4-(methylsulfonyl)-5-(morpholinomethyl)thiophen-2-yl)-5-(trifluoromethyl)pyrimidin-2-yl)-1,2,3,4-tetrahydroisoquinolin-6-amine], the IC50 fell in the range of 10 to 50 nM.

With `CS(=O)(=O)c1csc(-c2nc(Nc3cc4c(cc3Cl)CNCC4)ncc2C(F)(F)F)c1` [Example 32, 7-Chloro-N-(4-(4-(methylsulfonyl)thiophen-2-yl)-5-(trifluoromethyl)pyrimidin-2-yl)-1,2,3,4-tetrahydroisoquinolin-6-amine], the concentration for half-maximal inhibition (IC50) was at most 10 nM.

In the case of `NC(=O)c1csc(-c2nc(Nc3cc4c(cc3Cl)CNCC4)ncc2C(F)(F)F)c1` [Example 1, 5-(2-((7-chloro-1,2,3,4-tetrahydroisoquinolin-6-yl)amino)-5-(trifluoromethyl)pyrimidin-4-yl)thiophene-3-carboxamide], the IC50 was at most 10 nM.

Regarding `CS(=O)(=O)c1csc(-c2nc(Nc3cc(C4CNC4)ccc3Cl)ncc2C(F)(F)F)c1` [Example 121, N-(5-(azetidin-3-yl)-2-chlorophenyl)-4-(4-(methylsulfonyl)thiophen-2-yl)-5-(trifluoromethyl)pyrimidin-2-amine], the IC50 lay within 50 to 100 nM.

As to `N#Cc1csc(-c2nc(Nc3cc4c(cc3Cl)CNCC4)ncc2C(F)(F)F)c1` [Example 25, 5-(2-((7-Chloro-1,2,3,4-tetrahydroisoquinolin-6-yl)amino)-5-(trifluoromethyl)pyrimidin-4-yl)thiophene-3-carbonitrile], the IC50 was 10 to 50 nM.

With `CS(=O)(=O)c1cc(-c2nc(Nc3cc4c(cc3Cl)CN(C(=O)C(F)(F)F)CC4)ncc2C(F)(F)F)sc1C1=CCOCC1` [compound 74], the IC50 is above 500 nM.

With `CS(=O)(=O)c1cc(-c2nc(Nc3cc4c(cc3Cl)CNCC4)ncc2C(F)(F)F)sc1N1CCOCC1` [Example 83, 7-Chloro-N-[4-(4-methylsulfonyl-5-morpholino-2-thienyl)-5-(trifluoromethyl)pyrimidin-2-yl]-1,2,3,4-tetrahydroisoquinolin-6-amine], the IC50 was at most 10 nM.

Regarding `NC(=O)c1csc(-c2nc(Nc3cc4c(cc3Cl)CN(C3CNC3)CC4)ncc2C(F)(F)F)c1` [Example 5, 5-(2-((2-(azetidin-3-yl)-7-chloro-1,2,3,4-tetrahydroisoquinolin-6-yl)amino)-5-(trifluoromethyl)pyrimidin-4-yl)thiophene-3-carboxamide], the IC50 was at most 10 nM.

Take `CCc1cc2c(cc1Nc1ncc(C(F)(F)F)c(-c3cc4c(s3)CCNC4=O)n1)CCNC2` [Example 34, 2-(2-((7-ethyl-1,2,3,4-tetrahydroisoquinolin-6-yl)amino)-5-(trifluoromethyl)pyrimidin-4-yl)-6,7-dihydrothieno[3,2-c]pyridin-4(5H)-one]: the IC50 was at most 10 nM.

Turning to `CCc1cc(N2CCN(C)CC2)ccc1Nc1ncc(C(F)(F)F)c(-c2cc(C(N)=O)cs2)n1` [Example 37, 5-(2-((2-Ethyl-4-(4-methylpiperazin-1-yl)phenyl)amino)-5-(trifluoromethyl)pyrimidin-4-yl)thiophene-3-carboxamide], the IC50 is at most 10 nM.

For the compound `COCCOc1sc(-c2nc(Nc3cc4c(cc3Cl)CN(C)CC4)ncc2C(F)(F)F)cc1C(N)=O` [Example 66, 5-(2-((7-chloro-2-methyl-1,2,3,4-tetrahydroisoquinolin-6-yl)amino)-5-(trifluoromethyl)pyrimidin-4-yl)-2-(2-methoxyethoxy)thiophene-3-carboxamide], the IC50 is at most 10 nM.

Take `CS(=O)(=O)c1csc(-c2nc(Nc3ccc4c(c3)CCNC4)ncc2C(F)(F)F)c1` [Example 105, N-(4-(4-(methylsulfonyl)thiophen-2-yl)-5-(trifluoromethyl)pyrimidin-2-yl)-1,2,3,4-tetrahydroisoquinolin-6-amine]: the IC50 was at most 10 nM.

In the case of `CN1CCc2ccc(Nc3ncc(C(F)(F)F)c(-c4cc(S(C)(=O)=O)cs4)n3)cc2C1` [Example 102, N-[4-(4-methanesulfonylthiophen-2-yl)-5-(trifluoromethyl)pyrimidin-2-yl]-2-methyl-1,2,3,4-tetrahydroisoquinolin-7-amine], the IC50 was at most 10 nM.
